The source of these data is patent US20230172923A1, “METHODS OF TREATING CYTOKINE-RELATED ADVERSE EVENTS” (BRISTOL-MYERS SQUIBB COMPANY, priority 2020, published 2023).

Molecules are shown by their SMILES. “Also recorded” adds a separate entry of the source.

Holding throughout (assay type): cell-based, human
For experiment [1], the system named is IL-6. The experiment in a line: LPS-induced IL-6 secretion from PBMCs, overnight pre-treatment (MSD). The conditions noted are these: overnight 1000 nM lenalidomide, 100 nM pomalidomide, 10 nM iberdomide or 1 nM Compound 1; LPS 24 hours. The method, then: Fresh PBMCs isolated from healthy volunteers were seeded at a concentration of 1×10^6 cells/ml and treated with the indicated concentration of IMiD drugs/CELMoD agents or DMSO overnight before stimulation with the indicated concentration of LPS. After 24 hours, the cell culture media was collected and IL-6, TNF-alpha and IL1-beta levels in the supernatant were assessed using an MSD assay. ULOQ = Upper limit of quantification.
Fresh peripheral blood mononuclear cells (PBMCs) were isolated from the blood (buffy coat) of healthy human volunteers by Ficoll based cell separation. The isolated PBMCs were seeded at a concentration of 1×10^6 cells/ml and treated with 1000 nM lenalidomide, 100 nM pomalidomide, 10 nM iberdomide, 1 nM Compound 1 (CC-92480) or control DMSO, overnight (~17 hours). The next morning, the PBMCs were stimulated with various concentrations of LPS (Lipopolysaccharides from Escherichia coli O111:B4).
After 24 hours, the cell culture media was collected from the control and stimulated cells, spun down at 300 g for 5 minutes to remove cells and the supernatant was subjected to cytokine analysis to quantify secreted levels of IL-6, TNF-alpha (TNF-α) and IL1-beta (IL-1β) using an MSD assay (see e.g. FIGS. 8A-C).

Experiment [2] relates to IL-6. Kind of experiment: CC-93269-induced IL-6 secretion, co-culture of PBMCs and K562-BCMA cells (MSD). The note with it: 24 hours; for secretion of IL-6 associated with CC-93269 activity, PBMCs + K562-BCMA: pre-treatment 1000 nM lenalidomide, 100 nM pomalidomide, 10 nM iberdomide or 1 nM Compound 1, T-cells to target cells 5:1. The method, then:
(§1) Fresh PBMCs were isolated from healthy volunteers, the percentage of CD3+ T-cells (total) was quantified by flow cytometry, and the PBMCs were treated with 1 nM Compound 1 (CC-92480) or control DMSO overnight. The next morning, target cells (K562-BCMA, which overexpress surface BCMA at a very high level) or control cells (K562-MCB, no BCMA expression) were added to the wells at a ratio of 5:1, T-cells to target cells, followed by addition of CC-93269 at the indicated concentrations. At 6-, 24- and 48-hours post-incubation, the cell culture media was collected and levels of IL-6 in the supernatant were assessed using an MSD assay.
The circles indicate independent donors and the bars indicate median values; not all donors are shown because a data cut-off for the bottom ~10% of IL-6 concentrations, below 200 pg/ml, was used to eliminate small changes that could skew the result and to increase confidence in results.
as §1, with “the indicated concentrations of IMiD/CELMoD agents” for “1 nM Compound 1 (CC-92480)”, “level)” for “level) or control cells (K562-MCB, no BCMA expression)”, “24 hours” for “6-, 24- and 48-hours”
(§2) Fresh PBMCs were isolated from the blood (buffy coat) of healthy human volunteers by Ficoll based cell separation. The percentage of CD3+ T-cells (total) in the PBMCs was quantified by flow cytometry. The isolated PBMCs were seeded in 12-well plates at a concentration of 1.5×10^6 cells/ml and treated with 1 nM Compound 1 (CC-92480), 1000 nM lenalidomide, 100 nM pomalidomide, 10 nM iberdomide, or control DMSO overnight (~17 hours).
(§3) After overnight incubation, target K562-BCMA cells (overexpress surface BCMA at a very high level) or control K562-MCB cells (no BCMA expression) were added to the wells at a ratio of 5:1, T-cells to target cells. K562-BCMA and K562-MCB are an isogenic pair that are derived from a chronic myelogenous leukemia (CML,) cell line. CC-93269 was added to the co-culture at various concentrations and incubated. CC-93269 is an anti-BCMA anti-CD3 bispecific T cell-engaging antibody and is also referred to herein as 42-TCBcv.
At 6, 24 and 48 hours post-incubation, the cell culture media was collected from all samples, spun down at 300 g for 5 minutes to remove cells and the supernatant was subjected to cytokine analysis to quantify secreted levels of IL-6 using an MSD assay.

The subject of another experiment is TNF-alpha. The experiment in a line: CC-93269-induced TNF-alpha secretion, co-culture of PBMCs and K562-BCMA cells (MSD). The conditions noted are these: Compound 1 pre-treatment; 24 hours. The method, then: Co-cultures of PBMCs, target K562-BCMA cells and CC-93269 were prepared as for FIG. 9. At 6-, 24- and 48-hours post-incubation, the cell culture media was collected and levels of TNF-alpha (FIG. 12A) and IL-2 (FIG. 12B) in the supernatant were assessed using an MSD assay. ULOQ = Upper limit of quantification.
as §2, §3

The subject of the next experiment is MDC. The experiment in a line: LPS-stimulated PBMC cytokine production, multiplex cytokine analysis: MDC. The note with it: Homo sapiens, PBMC, PBMC 2×10^6 cells/ml, compound 1 hour, then 1 ng/ml LPS 18 hours. The method, then:
(§4) Peripheral blood mononuclear cells (PBMCs) were isolated from the blood of healthy human donors by Ficoll cell separation. […] Supernatant samples were subjected to multiplex cytokine analysis (Luminex IS100 instrument) to quantify secreted levels of IL-6, IL-8, IL1-beta (IL-1β), GM-CSF, MDC, MIP-1alpha (MIP-1α), MIP-1beta (MIP-1β) and TNF-alpha (TNF-α) (see e.g. FIGS. 7A-C). IC50 (half maximal inhibitory concentration) values were calculated to measure the potency of each IMiD compound in inhibiting LPS-stimulated secretion of each cytokine (see Table 25).

The next experiment concerns GM-CSF. The experiment in a line: LPS-stimulated PBMC cytokine production, multiplex cytokine analysis: GM-CSF. The note with it: Homo sapiens, PBMC, PBMC 2×10^6 cells/ml, compound 1 hour, then 1 ng/ml LPS 18 hours. The protocol:
as §4

The test system of the next experiment is MIP-1α. The experiment in a line: LPS-stimulated PBMC cytokine production, multiplex cytokine analysis: MIP-1α. The conditions noted are these: Homo sapiens, PBMC, PBMC 2×10^6 cells/ml, compound 1 hour, then 1 ng/ml LPS 18 hours. The protocol: (§5) Peripheral blood mononuclear cells (PBMCs) were isolated from the blood of healthy human donors by Ficoll cell separation. The PBMCs were seeded at a concentration of 2×10^6 cells/ml and treated for 1 hour at 37° C. with various concentrations of IMiD compounds or control DMSO (0.25%), before stimulation with 1 ng/ml LPS for 18 hours at 37° C.
(§6) Supernatant samples were subjected to multiplex cytokine analysis (Luminex IS100 instrument) to quantify secreted levels of IL-6, IL-8, IL1-beta (IL-1β), GM-CSF, MDC, MIP-1alpha (MIP-1α), MIP-1beta (MIP-1β) and TNF-alpha (TNF-α) (see e.g. FIGS. 7A-C).
(§7) IC50 (half maximal inhibitory concentration) values were calculated to measure the potency of each IMiD compound in inhibiting LPS-stimulated secretion of each cytokine (see Table 25).

For another experiment, the system named is MIP-1β. The experiment in a line: LPS-stimulated PBMC cytokine production, multiplex cytokine analysis: MIP-1β. The note with it: Homo sapiens; PBMC 2×10^6 cells/ml, compound 1 hour, then 1 ng/ml LPS 18 hours. The method, then: as §4
The test system of a further experiment is TNF-α. The experiment in a line: LPS-stimulated PBMC cytokine production, multiplex cytokine analysis: TNF-α. The conditions noted are these: Homo sapiens, PBMC, PBMC 2×10^6 cells/ml, compound 1 hour, then 1 ng/ml LPS 18 hours. The method, then:
as §5, §6, §7

Regarding `N#Cc1ccc(N2CCN(Cc3ccc(COc4cccc5c4CN(C4CCC(=O)NC4=O)C5=O)cc3)CC2)c(F)c1` (stereo not drawn) [Compound 1, 4-(4-(4-(((2-(2,6-dioxopiperidin-3-yl)-1-oxoisoindolin-4-yl)oxy)methyl)benzyl)piperazin-l-yl)-3-fluorobenzonitrile], in the experiment with IL-6 [1], the “LPS-induced secretion of IL-6 from PBMCs” value is “reduces”. In addition, in the experiment with IL-6 [2] (1 nM Compound 1 pre-treatment, 10 ng/ml CC-93269, PBMCs from 15 healthy donors), the “median reduction in IL-6 levels relative to DMSO control” value is recorded as “about two-fold”. In addition, the “IL-6 secretion at CC-93269 concentrations up to 10,000 ng/mL, PBMCs + K562-BCMA” value in the experiment with IL-6 [2] (Compound 1 pre-treatment) was “suppresses”. The “secretion of IL-6 associated with CC-93269 activity, PBMCs + K562-BCMA” value (shortened to “secretion of IL-6 associated”) with IL-6 [2] was “diminished/attenuated; also recorded: suppressed”. Also, the “CC-93269-induced TNF-alpha secretion from PBMCs with K562 target cells” value in the experiment on TNF-alpha is “potentiates”.

What is called IC50 is the midpoint of a concentration-inhibition curve. A lower IC50 goes with greater potency. Regarding `O=C1CC[C@H](N2Cc3c(OCc4ccc(CN5CCOCC5)cc4)cccc3C2=O)C(=O)N1` [Iberdomide, (S)-3-(4-((4-(morpholinomethyl)benzyl)oxy)-1-oxoisoindolin-2-yl)piperidine-2,6-dione], the IC50 in the experiment on MDC was 0.0021 µM; with GM-CSF it was 0.0022 µM; in the experiment on MIP-1α it was 0.028 µM; with MIP-1β, greater than 10 µM; in the experiment on TNF-α it was 0.00059 µM. In addition, the “LPS-induced secretion of IL-6 from PBMCs” value in the experiment with IL-6 [1] is listed as “reduces”. Further, in the experiment with IL-6 [2], the “secretion of IL-6 associated” value is listed as “diminished/attenuated; also recorded: suppressed”.

Regarding `Nc1cccc2c1CN(C1CCC(=O)NC1=O)C2=O` (centres unmarked) [Lenalidomide, 3-(4-amino-1-oxo-2,3-dihydro-1H-isoindol-2-yl) piperidine-2,6-dione], the half-inhibitory concentration (IC50) in the experiment with MDC is 0.19 µM; in the experiment on GM-CSF, greater than 10 µM; in the experiment on MIP-1α, greater than 10 µM; with MIP-1β, greater than 10 µM; in the experiment with TNF-α, 0.22 µM. In the experiment with IL-6 [1], the “LPS-induced secretion of IL-6 from PBMCs” value was “reduces”. Besides, in the experiment with IL-6 [2], the “secretion of IL-6 associated” value was “diminished/attenuated; also recorded: suppressed”.

As for `Nc1cccc2c1C(=O)N(C1CCC(=O)NC1=O)C2=O` (centres unmarked) [Pomalidomide, 4-amino-2-(2,6-dioxopiperidine-3-yl)isoindoline-1,3-dione], the IC50 in the experiment with MDC is 0.031 µM; in the experiment with GM-CSF it was 1.5 µM; with MIP-1α, 0.23 µM; with MIP-1β, greater than 10 µM; with TNF-α, 0.033 µM. Further, in the experiment with IL-6 [1], the “LPS-induced secretion of IL-6 from PBMCs” value was “reduces”. Also, in the experiment with IL-6 [2], the “secretion of IL-6 associated” value is given as “diminished/attenuated; also recorded: suppressed”.
